According to patent US20080096853A1, “Edible Compositions Comprising A Primary Lipid, A Co-Lipid, A Lipohilic Physiologically Active Ingredient And Water, And Their Preparation” (priority 2004, published 2008):

Assays:
Format in all cases: physicochemical
[1] = In situ incorporation of carotenoids from carrot juice into LFEGPG (absorbance at 448 nm); settings: Silverson
Experimental: • 1) 1 g solid LFEGPG was added to 100 ml cold carrot juice (97% pure fresh carrot juice, Zonnatura B.V Zoetermeer, Netherlands). The mixture was warmed up to 50° C. and kept at this temperature for 30 min with magnetic stirring. Homogenization was performed with a Silverson homogenizer at ˜5500 rpm followed by another hydration step for 5 min at 50° C. • The LFEGPG phase was filtrated, collected and dissolved in hexane. The β-carotene content was determined spectrophotometrically (absorbance at 448 nm) to be 0.68 mg β-carotene/g dry lipid phase (corrected for a water content of the hydrated LFEGPG phase of 30%). • (2) 2 g LFEGPG were melted at 50° C. and added dropwise to 100 ml carrot juice kept at 50° C. Magnet stirring was performed for 1 hour at 50° C., then the solution was homogenized with a Silverson homogenizer (4500 rpm for 1 minute) and magnet stirred at 50° C. for another 1 hour. The LFEGPG phase was collected by filtration and dissolved in hexane. The β-carotene content was spectrophotometrically determined (absorbance at 448 nm) to be 1.5 mg β-carotene/g dry LFEGPG. […] Magnet stirring was performed for 20 min at 50° C., Silverson (4500 rpm, 1 min.), and magnet stirred at 50° C. for another 10 min at 50° C. The LFEGPG phase was collected by filtration and dissolved in hexane. The β-carotene content was spectrophotometrically determined (absorbance at 448 nm) to be 2.0 mg β-carotene/g dry LFEGPG.

[2] = USP24 dissolution test type II: solubility of β-carotene in bile extract solution; settings: 900 ml bile extract solution in aqueous buffer, 37° C., stirring in USP24 for 60 min
Experimental: 6 mg of β-carotene and 2 g of lactic fatty acid ester+glycerol/propylene glycol reaction product (LFEGPG) were dissolved at 55° C. in 10 ml of ethanol. This solution was added dropwise to 200 ml of intensely agitated Tris buffer ([…]). After 15 minutes of stirring, the solution was cooled down and the pH adjusted to 4.0 with 1M HCl. The precipitate was then filtrated and LFEGPG lipid phase containing molecularly-dispersed β-carotene was used further in this experiment.
The precipitate was added to the USP24 vessel (dissolution test type II) loaded with 900 ml of bile extract solution in aqueous buffer at 37° C. As a control, 6 mg of free crystalline β-carotene was added to the same buffered bile solution in USP24.

[3] = Incorporation of β-carotene into LFEGPG in model systems (UV-Vis after centrifugation and hexane extraction)
Experimental: • (1) A. 1 g LFEGPG and 2.4 mg pure β-carotene were added to 100 ml water, followed by magnet stirring for 1 h at 50° C. 1.7 mg β-carotene/g dry LFEGPG were detected by UV-Vis spectrophotometry after centrifugation and extraction of β-carotene from the collected lipid phase by hexane. • B. 1 g LFEGPG and 2.4 mg pure β-carotene were melted together and added dropwise to 100 ml water, followed by magnet stirring for 20 min at 50° C. Ultra Turrax was applied to homogenize the sample, then the sample was magnet stirred for another 10 min at 50° C. […] Polymorphic or mesomorphic lipid phases containing molecularly dispersed β-carotene were derived (judged from appearance under microscope, however also a few free β-carotene crystals were detected, thus not completely molecularly dispersed). • (4) As the solubility of β-carotene in ethanol is limited, complete molecular dispersion of β-carotene was achieved by the use of non food-grade solvents such as chloroform. […] The lipid phase was investigated under the optical light microscope, and no β-carotene crystals could be detected. • (5) 0.2 g of LFEGPG and 2 mg β-carotene as well as 0.2 g a LFEGPG/Datem (diacetyl tartaric acid esters of mono- and diglycerides) mixture (93/7, by wt) and 2 mg β-carotene were dissolved in chloroform. […]

β-carotene content of LFEGPG phase ([1]; Example 7 (1): 1 g solid LFEGPG in 100 ml cold carrot juice, 50° C. 30 min, corrected for 30% water content): 0.68 mg β-carotene/g dry lipid phase | β-carotene content of LFEGPG phase ([1]; Example 7 (2): 2 g molten LFEGPG in 100 ml carrot juice, 1 hour stirring, another 1 hour, 50° C.): 1.5 mg β-carotene/g dry LFEGPG | β-carotene content of LFEGPG phase ([1]; Example 7 (3): 1 g molten LFEGPG in 100 ml carrot juice, 20 min stirring, another 10 min, 50° C.): 2.0 mg β-carotene/g dry LFEGPG | solubility of β-carotene in the bile solution, from the initial amount (6 mg) [2]: ~0% | β-carotene detected in collected lipid phase ([3]; Example 6 (1) A: 1 g LFEGPG and 2.4 mg β-carotene added to 100 ml water, stirred 1 h at 50° C.): 1.7 mg β-carotene/g dry LFEGPG | β-carotene recovered ([3]; Example 6 (1) B: 1 g LFEGPG and 2.4 mg β-carotene melted together, added dropwise to 100 ml water, Ultra Turrax): 2.2 mg
Compound: CC1=C(/C=C/C(C)=C/C=C/C(C)=C/C=C/C=C(C)/C=C/C=C(C)/C=C/C2=C(C)CCCC2(C)C)C(C)(C)CCC1 [β-carotene]
